Assay results as given in patent US20230167073A1 (Teijin Pharma Limited, priority 2020, published 2023).

Each molecule was assayed against T1, Human TRPC6 (Homo sapiens, UniProt Q9Y210) (assay: Evaluation of TRPC6 channel inhibitory activity (1), FLIPR Calcium 5 Assay Kit, OAG stimulation (Compound Nos. 1-1293)). Settings: Human TRPC6 stably-expressing cells, OAG 30 μM, FLIPR Calcium 5 Assay Kit; read-out: Inhibitory activity (pIC50 class) (converted).
T1 construct: expressed in transfected cells
T1 sequence (Q9Y210 1-931): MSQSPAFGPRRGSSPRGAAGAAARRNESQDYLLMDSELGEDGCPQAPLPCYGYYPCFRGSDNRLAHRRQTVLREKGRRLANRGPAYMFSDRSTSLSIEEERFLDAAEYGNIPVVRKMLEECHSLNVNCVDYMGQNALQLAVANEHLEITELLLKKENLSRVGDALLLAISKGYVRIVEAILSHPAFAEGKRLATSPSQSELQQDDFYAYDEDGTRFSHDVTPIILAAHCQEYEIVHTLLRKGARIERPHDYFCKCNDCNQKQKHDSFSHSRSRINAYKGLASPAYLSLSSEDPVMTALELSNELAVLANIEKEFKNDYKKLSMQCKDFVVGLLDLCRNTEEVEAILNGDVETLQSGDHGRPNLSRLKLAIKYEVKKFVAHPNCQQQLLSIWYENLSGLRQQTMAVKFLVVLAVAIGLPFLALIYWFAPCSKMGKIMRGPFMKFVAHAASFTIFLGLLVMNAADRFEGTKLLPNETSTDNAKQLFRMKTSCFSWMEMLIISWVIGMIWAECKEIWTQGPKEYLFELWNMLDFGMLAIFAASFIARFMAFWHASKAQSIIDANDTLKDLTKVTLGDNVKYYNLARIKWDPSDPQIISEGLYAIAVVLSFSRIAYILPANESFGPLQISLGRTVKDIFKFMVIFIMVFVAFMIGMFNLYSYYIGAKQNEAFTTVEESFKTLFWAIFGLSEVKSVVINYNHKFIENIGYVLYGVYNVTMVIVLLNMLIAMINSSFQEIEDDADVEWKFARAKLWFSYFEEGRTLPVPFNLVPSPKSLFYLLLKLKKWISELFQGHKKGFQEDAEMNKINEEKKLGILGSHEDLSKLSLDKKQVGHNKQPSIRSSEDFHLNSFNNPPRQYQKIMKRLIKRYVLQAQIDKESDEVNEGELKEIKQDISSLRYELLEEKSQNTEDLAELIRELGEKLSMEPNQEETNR
Format: cell-based
How it was run: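 Readout is pIC50 from four-parameter logistic fitting of inhibition of the OAG-evoked (30 μM final) fluorescence calcium signal. Human TRPC6 stable cells are dye-loaded with probenecid, and compound is applied 20 min ahead of agonist.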

First: Cc1nc(Oc2cc(C#N)ccc2-c2ncc(CN)cn2)cc(N2CCOC(C)(C)C2)n1 [compound 710, 4-[5-(aminomethyl)pyrimidin-2-yl]-3-[6-(2,2-dimethylmorpholin-4-yl)-2-methylpyrimidin-4-yl]oxybenzonitrile]
Second: Cc1nc(Oc2cc(C#N)ccc2-c2ncc(CCN)cn2)cc(OC2COC2)n1 [compound 886, 4-[5-(2-aminoethyl)pyrimidin-2-yl]-3-[2-methyl-6-(oxetan-3-yloxy)pyrimidin-4-yl]oxybenzonitrile]
The IC50 of the first is lower: 10 to 1000 nM for the first, greater than 1000 nM for the second.

First: CC(C)c1cc(Oc2cc(C#N)ccc2-c2ccc(CCN)cn2)n(C)n1 [Compound 229, 4-[5-(2-aminoethyl)pyridin-2-yl]-3-(2-methyl-5-propan-2-ylpyrazol-3-yl)oxybenzonitrile]
Second: Cn1nc(C2CC2)cc1Oc1cc(C#N)ccc1-c1cc(CN)ccn1 [compound 443, 4-[4-(aminomethyl)pyridin-2-yl]-3-(5-cyclopropyl-2-methylpyrazol-3-yl)oxybenzonitrile]
The IC50 of the first is lower: less than 10 nM for the first, 10 to 1000 nM for the second.

First: COC(=O)c1ccccc1-c1cc(Oc2cc(C#N)ccc2-c2ccc(CCN)cc2)cnn1 [Compound 120, methyl 2-[5-[2-[4-(2-aminoethyl)phenyl]-5-cyanophenoxy]pyridazin-3-yl]benzoate]
Second: Cc1cc(Oc2cc(C#N)ccc2-c2ncc(CCN)cn2)cc(-c2nccs2)n1 [compound 595, 4-[5-(2-aminoethyl)pyrimidin-2-yl]-3-[2-methyl-6-(1,3-thiazol-2-yl)pyridin-4-yl]oxybenzonitrile]
The IC50 of the first is lower: less than 10 nM for the first, 10 to 1000 nM for the second.

`Cc1nn(CC(C)(C)C)cc1Oc1cc(C#N)ccc1-c1ncc(CCN)cn1` [compound 937, 4-[5-(2-aminoethyl)pyrimidin-2-yl]-3-[1-(2,2-dimethylpropyl)-3-methylpyrazol-4-yl]oxybenzonitrile] and `Cn1nc(N2CCCCC2)cc1Oc1cc(C#N)ccc1-c1ncc(CN)cn1` [compound 624, 4-[5-(aminomethyl)pyrimidin-2-yl]-3-(2-methyl-5-piperidin-1-ylpyrazol-3-yl)oxybenzonitrile] cannot be ordered by IC50: less than 10 nM for the first, less than 10 nM for the second.

First: Cn1nc(C2CC2)cc1Oc1cc(C#N)ccc1-c1cccc2c(N)nccc12 [compound 453, 4-(1-aminoisoquinolin-5-yl)-3-(5-cyclopropyl-2-methylpyrazol-3-yl)oxybenzonitrile]
Second: Cn1nc(C2CCOCC2)cc1Oc1cc(F)ccc1-c1ccc(CN)cn1 [compound 1008, [6-[4-fluoro-2-[2-methyl-5-(oxan-4-yl)pyrazol-3-yl]oxyphenyl]pyridin-3-yl]methanamine]
The IC50 of the first is higher: greater than 1000 nM for the first, 10 to 1000 nM for the second.

`Cc1nc(Oc2cc(C#N)ccc2-n2ncc3c2CCNC3)cc(N2CCCCC2)n1` [compound 745, 3-(2-methyl-6-piperidin-1-ylpyrimidin-4-yl)oxy-4-(4,5,6,7-tetrahydropyrazolo[4,3-c]pyridin-1-yl)benzonitrile] and `Cc1nc(Oc2cc(C#N)ccc2-c2ccc(CCN)cn2)cc(N2CCN(S(C)(=O)=O)CC2)n1` [compound 654, 4-[5-(2-aminoethyl)pyridin-2-yl]-3-[2-methyl-6-(4-methylsulfonylpiperazin-1-yl)pyrimidin-4-yl]oxybenzonitrile] cannot be ordered by IC50: greater than 1000 nM for the first, greater than 1000 nM for the second.

Compared with `Cn1nc(N2CCCC2)cc1Cc1cc(C#N)ccc1-c1ccc(CCN)cn1` [compound 1212, 4-[5-(2-aminoethyl)pyridin-2-yl]-3-[(2-methyl-5-pyrrolidin-1-ylpyrazol-3-yl)methyl]benzonitrile], `Cc1nc(Sc2cc(C#N)ccc2-c2ccc(CCN)cn2)cc(N2CCCC2)n1` [compound 1250, 4-[5-(2-aminoethyl)pyridin-2-yl]-3-(2-methyl-6-pyrrolidin-1-ylpyrimidin-4-yl)sulfanylbenzonitrile] is higher in IC50: less than 10 nM for the first, 10 to 1000 nM for the second.

For `Cn1nc(C(C)(C)C)cc1C(O)c1cc(C#N)ccc1-c1ccc(CN)cn1` (stereo not drawn) [compound 1233, 4-[5-(aminomethyl)pyridin-2-yl]-3-[(5-tert-butyl-2-methylpyrazol-3-yl)-hydroxymethyl]benzonitrile], the IC50 was less than 10 nM.
